The compounds below were run against c-kit (Homo sapiens, UniProt P10721) (assay: c-kit assays of Examples 40 and 41 (AlphaScreen kinase assays at 10 and 100 μM ATP, 33P-ATP filter assay, M-07e SCF-stimulated proliferation and phosphorylation)).
c-kit, sequence (P10721 with tags, fused parts or gaps): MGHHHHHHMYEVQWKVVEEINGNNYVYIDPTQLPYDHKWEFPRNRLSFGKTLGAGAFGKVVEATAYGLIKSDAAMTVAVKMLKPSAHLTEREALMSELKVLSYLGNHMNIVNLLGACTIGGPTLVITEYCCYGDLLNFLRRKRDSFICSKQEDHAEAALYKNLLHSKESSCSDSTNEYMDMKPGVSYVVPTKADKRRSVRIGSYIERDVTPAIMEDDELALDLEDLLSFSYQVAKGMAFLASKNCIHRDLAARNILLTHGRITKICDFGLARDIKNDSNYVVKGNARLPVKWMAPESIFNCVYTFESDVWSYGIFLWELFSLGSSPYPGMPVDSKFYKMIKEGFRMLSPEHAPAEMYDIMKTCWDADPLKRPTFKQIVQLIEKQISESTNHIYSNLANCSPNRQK

IC50, < 1000 nM:
c1cncc(CNc2ccc(Cc3c[nH]c4ncccc34)cn2)c1 [P-0094, Pyridin-3-ylmethyl-[5-(1H-pyrrolo[2,3-b]pyridin-3-ylmethyl)-pyridin-2-yl]-amine]
Cc1cc(CNc2ccc(Cc3c[nH]c4ncccc34)cn2)no1 [P-0095, (5-Methyl-isoxazol-3-ylmethyl)-[5-(1H-pyrrolo[2,3-b]pyridin-3-ylmethyl)-pyridin-2-yl]-amine]
c1cnc2[nH]cc(Cc3ccc(NCCN4CCCC4)nc3)c2c1 [P-0096, (2-Pyrrolidin-1-yl-ethyl)-[5-(1H-pyrrolo[2,3-b]pyridin-3-ylmethyl)-pyridin-2-yl]-amine]
CC(Nc1ccc(Cc2c[nH]c3ncccc23)cn1)c1ccc(S(C)(=O)=O)cc1 (stereo not shown) [P-0097, [1-(4-Methanesulfonyl-phenyl)-ethyl]-[5-(1H-pyrrolo[2,3-b]pyridin-3-ylmethyl)-pyridin-2-yl]-amine]
COCCNc1ccc(Cc2c[nH]c3ncccc23)cn1 [P-0098, (2-Methoxy-ethyl)-[5-(1H-pyrrolo[2,3-b]pyridin-3-ylmethyl)-pyridin-2-yl]-amine]
c1cnc2[nH]cc(Cc3ccc(NCCN4CCOCC4)nc3)c2c1 [P-0099, (2-Morpholin-4-yl-ethyl)-[5-(1H-pyrrolo[2,3-b]pyridin-3-ylmethyl)-pyridin-2-yl]-amine]
O=C(Nc1ccc(Cc2c[nH]c3ncccc23)cn1)c1ccc(Cl)c(Cl)c1 [P-0100, 3,4-Dichloro-N-[5-(1H-pyrrolo[2,3-b]pyridin-3-ylmethyl)-pyridin-2-yl]-benzamide]
O=C(Nc1ccc(Cc2c[nH]c3ncccc23)cn1)c1ccc(F)cc1Cl [P-0101, 2-Chloro-4-fluoro-N-[5-(1H-pyrrolo[2,3-b]pyridin-3-ylmethyl)-pyridin-2-yl]-benzamide]
Cc1cc(C(=O)Nc2ccc(Cc3c[nH]c4ncccc34)cn2)n(C)n1 [P-0102, 2,5-Dimethyl-2H-pyrazole-3-carboxylic acid [5-(1H-pyrrolo[2,3-b]pyridin-3-ylmethyl)-pyridin-2-yl]-amide]
O=C(Nc1ccc(Cc2c[nH]c3ncccc23)cn1)c1cccs1 [P-0103, Thiophene-2-carboxylic acid [5-(1H-pyrrolo[2,3-b]pyridin-3-ylmethyl)-pyridin-2-yl]-amide]
COc1cc(C(=O)Nc2ccc(Cc3c[nH]c4ncccc34)cn2)ccn1 [P-0104, 2-Methoxy-N-[5-(1H-pyrrolo[2,3-b]pyridin-3-ylmethyl)-pyridin-2-yl]-isonicotinamide]
O=C(Nc1ccc(Cc2c[nH]c3ncccc23)cn1)c1ccncc1 [P-0105, N-[5-(1H-Pyrrolo[2,3-b]pyridin-3-ylmethyl)-pyridin-2-yl]-isonicotinamide]
O=C(Nc1ccc(Cc2c[nH]c3ncccc23)cn1)c1ccccn1 [P-0107, Pyridine-2-carboxylic acid [5-(1H-pyrrolo[2,3-b]pyridin-3-ylmethyl)-pyridin-2-yl]-amide]
Cc1ccc(C(=O)Nc2ccc(Cc3c[nH]c4ncccc34)cn2)cn1 [P-0108, 6-Methyl-N-[5-(1H-pyrrolo[2,3-b]pyridin-3-ylmethyl)-pyridin-2-yl]-nicotinamide]
Cc1cc(C(=O)Nc2ccc(Cc3c[nH]c4ncccc34)cn2)ccc1F [P-0109, 4-Fluoro-3-methyl-N-[5-(1H-pyrrolo[2,3-b]pyridin-3-ylmethyl)-pyridin-2-yl]-benzamide]
O=C(Nc1ccc(Cc2c[nH]c3ncccc23)cn1)c1cccc(Cl)c1 [P-0111, 3-chloro-N-[5-(1H-pyrrolo[2,3-b]pyridin-3-ylmethyl)-pyridin-2-yl]-benzamide]
